IC50 data for 30 compounds are collected here from patent US20090247559A1 (Exelixis, Inc., priority 2007, published 2009).

The target of assay [1] is CK2 (Homo sapiens, UniProt P68400). Nature of the assay: CK2 inhibition, biochemical chemiluminescence holoenzyme assay (Kinase Glo, IC50 determination). Conditions: Table 1 activity class; symbol given only if active; read-out: CK2 IC50 (Activity C). Put shortly:
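Holoenzyme CK2 assay; compounds pre-incubated with substrate and enzyme, then reacted 150 min at 24-27° C. Remaining ATP measured as luminescence with Kinase Glo, and IC50 derived from the signal.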

For assay [2], the target named is PIM (PIM-1, PIM-2, and/or PIM-3). The assay can be described thus: PIM-1, PIM-2 and PIM-3 inhibition, biochemical chemiluminescence assays (Kinase Glo, IC50 determination). Conditions: Table 1 activity class; PIM refers to PIM-1, PIM-2, and/or PIM-3; read-out: PIM IC50 (Activity B).

Where only a bound is given, the exact number is not on record here.

Chain of CK2 (P68400 whole entry): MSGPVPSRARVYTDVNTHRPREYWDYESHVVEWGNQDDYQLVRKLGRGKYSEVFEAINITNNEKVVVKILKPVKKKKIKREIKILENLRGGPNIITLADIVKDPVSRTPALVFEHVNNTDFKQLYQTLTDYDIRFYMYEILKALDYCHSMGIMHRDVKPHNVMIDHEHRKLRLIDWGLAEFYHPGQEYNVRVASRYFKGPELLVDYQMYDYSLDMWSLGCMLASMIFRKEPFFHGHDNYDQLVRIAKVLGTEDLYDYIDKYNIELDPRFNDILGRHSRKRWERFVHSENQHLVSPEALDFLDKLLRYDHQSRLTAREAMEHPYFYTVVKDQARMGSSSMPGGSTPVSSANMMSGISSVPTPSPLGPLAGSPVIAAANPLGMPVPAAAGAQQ
Chain of CK2 (P67870 whole entry partner): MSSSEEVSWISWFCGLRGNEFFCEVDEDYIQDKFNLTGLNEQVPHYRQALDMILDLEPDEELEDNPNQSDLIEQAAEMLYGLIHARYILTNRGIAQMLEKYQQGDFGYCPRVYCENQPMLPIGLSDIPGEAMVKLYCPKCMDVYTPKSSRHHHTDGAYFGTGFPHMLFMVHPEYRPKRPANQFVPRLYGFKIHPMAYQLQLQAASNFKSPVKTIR

With `O=C(Nc1ccc(-c2nc3c(oc4ccc(Br)cc43)c(=O)[nH]2)c(Cl)c1)c1ccc(-n2cccn2)nc1` [Compound 396, N-[4-(8-bromo-4-oxo-3,4-dihydro[1]benzofuro[3,2-d]pyrimidin-2-yl)-3-chlorophenyl]-6-(1H-pyrazol-1-yl)pyridine-3-carboxamide], the IC50 in assay [1] and in assay [2] was less than 10 µM each time.
For `CC(C)(CN1CCCC1)NCc1nc2c(oc3ccc(Br)cc32)c(=O)[nH]1` [Compound 190, 8-bromo-2-{[(1,1-dimethyl-2-pyrrolidin-1-ylethyl)amino]methyl}[1]benzofuro[3,2-d]pyrimidin-4(3H)-one], the IC50 in assay [1] and in assay [2] was less than 10 µM each time.
In the case of `O=C(Nc1ccc(-c2nc3c(oc4ccc(Br)cc43)c(=O)[nH]2)c(Cl)c1)c1cnc2ccccc2n1` [Compound 397, N-[4-(8-bromo-4-oxo-3,4-dihydro[1]benzofuro[3,2-d]pyrimidin-2-yl)-3-chlorophenyl]quinoxaline-2-carboxamide], the IC50 in assay [1] and in assay [2] was less than 10 µM throughout.
Take `O=C(Nc1ccc(-c2nc3c(oc4ccc(Br)cc43)c(=O)[nH]2)cc1)c1ccncc1` [Compound 360, N-[4-(8-bromo-4-oxo-3,4-dihydro[1]benzofuro[3,2-d]pyrimidin-2-yl)phenyl]pyridine-4-carboxamide]: the IC50 in assay [1] and in assay [2] was less than 10 µM in each case.
On to `CC(C)CNC(=O)c1cccc(-c2nc3c(oc4ccc(Br)cc43)c(=O)[nH]2)c1` [Compound 101, 3-(8-bromo-4-oxo-3,4-dihydro[1]benzofuro[3,2-d]pyrimidin-2-yl)-N-(2-methylpropyl)benzamide], for which the IC50 in assay [1] and in assay [2] was less than 10 µM throughout.
Consider `O=c1[nH]c(CN2CCC(c3ccccc3)CC2)nc2c1oc1ccc(Br)cc12` [Compound 238, 8-bromo-2-[(4-phenylpiperidin-1-yl)methyl][1]benzofuro[3,2-d]pyrimidin-4(3H)-one], for which the IC50 in assay [1] and in assay [2] was less than 10 µM in each case.
As to `O=c1[nH]c(CN2CC[C@H](O)C2)nc2c1oc1ccc(NCc3ccccn3)cc12` [Compound 463, 2-{[(3S)-3-hydroxypyrrolidin-1-yl]methyl}-8-[(pyridin-2-ylmethyl)amino][1]benzofuro[3,2-d]pyrimidin-4(3H)-one], the half-inhibitory concentration (IC50) in assay [1] and in assay [2] was less than 10 µM throughout.
With `O=c1[nH]c(CN2C[C@H]3CNC[C@H]3C2)nc2c1oc1ccc(Br)cc12` [Compound 229, 8-bromo-2-[(3aR,6aS)-hexahydropyrrolo[3,4-c]pyrrol-2(1H)-ylmethyl][1]benzofuro[3,2-d]pyrimidin-4(3H)-one], the concentration for half-maximal inhibition (IC50) in assay [1] and in assay [2] was less than 10 µM each time.
As for `CNCc1ccc(-c2nc3c(oc4ccc(Br)cc43)c(=O)[nH]2)cc1` [Compound 382, 8-bromo-2-{4-[(methylamino)methyl]phenyl}[1]benzofuro[3,2-d]pyrimidin-4(3H)-one], the IC50 in assay [1] and in assay [2] was less than 10 µM in each case.
For `O=c1[nH]c(-c2ccccc2C(F)(F)F)nc2c1oc1ccc(Br)cc12` [Compound 65, 8-bromo-2-[2-(trifluoromethyl)phenyl][1]benzofuro[3,2-d]pyrimidin-4(3H)-one], the IC50 in assay [1] and in assay [2] was less than 10 µM throughout.
Turning to `O=c1[nH]c(CN2CC[C@H](O)C2)nc2c1oc1ccc(C#CCCCCO)cc12` [Compound 456, 8-(6-hydroxyhex-1-yn-1-yl)-2-{[(3S)-3-hydroxypyrrolidin-1-yl]methyl}[1]benzofuro[3,2-d]pyrimidin-4(3H)-one], the IC50 in assay [1] and in assay [2] was less than 10 µM in each case.
For the compound `O=c1[nH]c(CN2CCCC(CO)C2)nc2c1oc1ccc(Br)cc12` (stereo not drawn) [Compound 306, 8-bromo-2-{[3-(hydroxymethyl)piperidin-1-yl]methyl}[1]benzofuro[3,2-d]pyrimidin-4(3H)-one], the IC50 in assay [1] and in assay [2] was less than 10 µM in each case.
For `O=C(Nc1ccc(-c2nc3c(oc4ccc(Br)cc43)c(=O)[nH]2)c(Cl)c1)c1ccccc1` [Compound 249, N-[4-(8-bromo-4-oxo-3,4-dihydro[1]benzofuro[3,2-d]pyrimidin-2-yl)-3-chlorophenyl]benzamide], the IC50 in assay [1] and in assay [2] was less than 10 µM in each case.
Turning to `O=C(NC1CCCCC1)c1cccc(-c2nc3c(oc4ccc(Br)cc43)c(=O)[nH]2)c1` [Compound 92, 3-(8-bromo-4-oxo-3,4-dihydro[1]benzofuro[3,2-d]pyrimidin-2-yl)-N-cyclohexylbenzamide], the IC50 in assay [1] and in assay [2] was less than 10 µM in each case.
As to `CCN1CCN(Cc2nc3c(oc4ccc(Br)cc43)c(=O)[nH]2)CC1` [Compound 150, 8-bromo-2-[(4-ethylpiperazin-1-yl)methyl][1]benzofuro[3,2-d]pyrimidin-4(3H)-one], the IC50 in assay [1] and in assay [2] was less than 10 µM in each case.
Take `O=c1[nH]c(CN2CCC(Cc3ccccc3)CC2)nc2c1oc1ccc(Br)cc12` [Compound 253, 8-bromo-2-{[4-(phenylmethyl)piperidin-1-yl]methyl}[1]benzofuro[3,2-d]pyrimidin-4(3H)-one]: the IC50 in assay [1] and in assay [2] was less than 10 µM in each case.
For `O=c1[nH]c(CN2CCC(F)(F)C2)nc2c1oc1ccc(Br)cc12` [Compound 318, 8-bromo-2-[(3,3-difluoropyrrolidin-1-yl)methyl][1]benzofuro[3,2-d]pyrimidin-4(3H)-one], the IC50 in assay [1] and in assay [2] was less than 10 µM throughout.
Consider `O=c1[nH]c(-c2ccc3c(c2)CCNC3)nc2c1oc1ccc(Br)cc12` [Compound 300, 8-Bromo-2-(1,2,3,4-tetrahydroisoquinolin-6-yl)[1]benzofuro[3,2-d]pyrimidin-4(3H)-one], for which the IC50 in assay [1] and in assay [2] was less than 10 µM each time.
As to `NCc1nc(-c2nc3c(oc4ccc(Br)cc43)c(=O)[nH]2)cs1` [Compound 352, 2-[2-(Aminomethyl)-1,3-thiazol-4-yl]-8-bromo[1]benzofuro[3,2-d]pyrimidin-4(3H)-one], the IC50 in assay [1] and in assay [2] was less than 10 µM in each case.
Turning to `CC(=O)Nc1ccc(C(=O)Nc2ccc(Cl)c(-c3nc4c(oc5ccc(Br)cc54)c(=O)[nH]3)c2)cc1` [Compound 356, 4-(acetylamino)-N-[3-(8-bromo-4-oxo-3,4-dihydro[1]benzofuro[3,2-d]pyrimidin-2-yl)-4-chlorophenyl]benzamide], the IC50 in assay [1] and in assay [2] was less than 10 µM in each case.
For `CN(C)CC(=O)N1CCC(c2nc3c(oc4ccc(Br)cc43)c(=O)[nH]2)CC1` [Compound 210, 8-bromo-2-[1-(N,N-dimethylglycyl)piperidin-4-yl][1]benzofuro[3,2-d]pyrimidin-4(3H)-one], the IC50 in assay [1] and in assay [2] was less than 10 µM each time.
With `O=c1[nH]c(CN2CC[C@H](O)C2)nc2c1oc1ccc(NCCc3cccc(C(F)(F)F)c3)cc12` [Compound 473, 2-{[(3S)-3-hydroxypyrrolidin-1-yl]methyl}-8-({2-[3-(trifluoromethyl)phenyl]ethyl}amino)[1]benzofuro[3,2-d]pyrimidin-4(3H)-one], the IC50 in assay [1] and in assay [2] was less than 10 µM in each case.
Regarding `COc1cc(Br)c(-c2nc3c(oc4ccc(Br)cc43)c(=O)[nH]2)cc1OC` [Compound 66, 8-bromo-2-[2-bromo-4,5-bis(methyloxy)phenyl][1]benzofuro[3,2-d]pyrimidin-4(3H)-one], the IC50 in assay [1] and in assay [2] was less than 10 µM each time.
Regarding `O=c1[nH]c(CNCc2ccccc2)nc2c1oc1ccc(Br)cc12` [Compound 239, 8-bromo-2-{[(phenylmethyl)amino]methyl}[1]benzofuro[3,2-d]pyrimidin-4(3H)-one], the IC50 in assay [1] and in assay [2] was less than 10 µM each time.
In the case of `COc1cccc2oc3c(=O)[nH]c(-c4ccc5[nH]nc(N)c5c4)nc3c12` [Compound 171, 2-(3-amino-1H-indazol-5-yl)-9-(methyloxy)[1]benzofuro[3,2-d]pyrimidin-4(3H)-one], the IC50 in assay [1] and in assay [2] was less than 10 µM each time.
In the case of `Cn1nc(OC2CCNCC2)cc1-c1nc2c(oc3ccc(Br)cc32)c(=O)[nH]1` [Compound 351, 8-Bromo-2-[1-methyl-3-(piperidin-4-yloxy)-1H-pyrazol-5-yl][1]benzofuro[3,2-d]pyrimidin-4(3H)-one], the IC50 in assay [1] and in assay [2] was less than 10 µM throughout.
For the compound `O=C(Nc1ccc(-c2nc3c(oc4ccc(Br)cc43)c(=O)[nH]2)c(Cl)c1)c1cccc(Cl)c1` [Compound 280, N-[4-(8-bromo-4-oxo-3,4-dihydro[1]benzofuro[3,2-d]pyrimidin-2-yl)-3-chlorophenyl]-3-chlorobenzamide], the IC50 in assay [1] and in assay [2] was less than 10 µM each time.
Take `O=c1[nH]c(CN2CC[C@H](O)C2)nc2c1oc1ccc(C#CCO)cc12` [Compound 454, 8-(3-hydroxyprop-1-yn-1-yl)-2-{[(3S)-3-hydroxypyrrolidin-1-yl]methyl}[1]benzofuro[3,2-d]pyrimidin-4(3H)-one]: the IC50 in assay [1] and in assay [2] was less than 10 µM throughout.
As for `O=c1[nH]c(CNC2Cc3ccccc3C2)nc2c1oc1ccc(Br)cc12` [Compound 263, 8-bromo-2-[(2,3-dihydro-1H-inden-2-ylamino)methyl][1]benzofuro[3,2-d]pyrimidin-4(3H)-one], the IC50 in assay [1] and in assay [2] was less than 10 µM each time.
`O=C(NCc1ccccc1)c1cccc(-c2nc3c(oc4ccc(Br)cc43)c(=O)[nH]2)c1` [Compound 99, 3-(8-bromo-4-oxo-3,4-dihydro[1]benzofuro[3,2-d]pyrimidin-2-yl)-N-(phenylmethyl)benzamide]: the IC50 in assay [1] and in assay [2] was less than 10 µM in each case.
